Measurements as given in patent US6787342B2, “Paste formulations” (Merial Limited, priority 2000, dated 2004).

Tests used:
[1] = system: Cooperia onocophora and Nematodirus; conditions: against Cooperia onocophora and Nematodirus; cited from earlier work
[2] = Thermodynamic stability of polymorphic forms (DSC, Burger's rule); assay type: physicochemical; conditions: monotropic system
Description: When heated, form A transforms to form B depending on the heating rate.
Therefore, the transition A→B is under kinetic control as usual in case of polymorphism. The transition from A to B may also be followed by XRay under heating (FIG. 12).

[3] = Carr Index (compressibility/flowability) of unmilled polymorphic forms; assay type: physicochemical
Description: After crystallization and before micronization, the Carr Index of B form is lower than 10 (in %). The Can Index CI is defined as [formula] where P is the packed bulk density (g cm^−3), L is the loose bulk density (g cm 3). CI is also known as a compressibility index. A low figure for Cl corresponds to a high degree of flowability. The Carr Index way be calculated from Mercury Intrusion Porosimetry or measured by Tap-Tap.

| thermodynamic stability of polymorphic form ([2]; listed as B form) | Carr Index ([3]; after crystallization and before micronization) | Compound | ivermectin plasma level required for efficacy [1] [ng/mL] | thermodynamic stability of polymorphic form [2] | flow characteristics ([3]; compared with Polymorph A) |
| --- | --- | --- | --- | --- | --- |
| – | – | 22,23-dihydro avermectin Bla/Blb [ivermectin] | 3 to 4 | – | – |
| the most stable form | lower than 10% | CC1(C)OC(=O)C(OCC2CC2)=C1c1ccc(S(C)(=O)=O)cc1 [Polymorph B, 3-(cyclopropylmethoxy)-4-[4-(methylsulfonyl)phenyl]-5,5-dimethyl-5H-furan-2-one] | – | thermodynamically more stable than Polymorph A | better flow characteristics than Polymorph A |
